Data on 30 compounds can be found in patent US8846719B2, “Isoxazolo-pyridine derivatives” (Roche Palo Alto LLC, priority 2007, dated 2014).

This assay addresses human GABA A receptor α5β3γ2 (Homo sapiens (Human), UniProt P18507+P31644). Description: [3H]flumazenil competition binding assay, human GABA A α5β3γ2 receptors expressed in HEK293 cells. Conditions: human receptor; displacement of [3H]flumazenil (0.5 nM); means of two determinations; read-out: hKi GABAAa5. Here is the method: The affinity of compounds at GABA A receptor subtypes was measured by competition for [3H]flumazenil (85 Ci/mmol; Roche) binding to HEK293 cells expressing rat (stably transfected) or human (transiently transfected) receptors of composition α1β3γ2, α2β3γ2, α3β3γ2 and α5β3γ2.
Cell pellets were suspended in Krebs-tris buffer (4.8 mM KCl, 1.2 mM CaCl2, 1.2 mM MgCl2, 120 mM NaCl, 15 mM Tris; pH 7.5; binding assay buffer), homogenized by polytron for ca. 20 sec on ice and centrifuged for 60 min at 4° C. (50000 g; Sorvall, rotor: SM24=20000 rpm). The cell pellets were resuspended in Krebs-tris buffer and homogenized by polytron for ca. 15 sec on ice. Protein was measured (Bradford method, Bio-Rad) and aliquots of 1 mL were prepared and stored at −80° C.
Assays were incubated to equilibrium for 1 hour at 4° C. and harvested onto GF/C uni-filters (Packard) by filtration using a Packard harvester and washing with ice-cold wash buffer (50 mM Tris; pH 7.5). After drying, filter-retained radioactivity was detected by liquid scintillation counting. Ki values were calculated using Excel-Fit (Microsoft) and are the means of two determinations.
A general note: Displacement assays read how much labelled ligand stays bound in the presence of the test substance.
Regarding `Cc1onc(-c2ccccc2)c1COc1ccc(C(=O)NC[C@@H](C)O)cn1` (racemic) [Example 14, (R,S)—N-(2-Hydroxy-propyl)-6-(5-methyl-3-phenyl-isoxazol-4-ylmethoxy)-nicotinamide], the Ki is 2.5 nM. To `Cc1onc(-c2ccccc2)c1COc1ccc(C(=O)N[C@@H]2CCOC(C)(C)C2)cn1` (racemic) [Example 32, (R,S)—N-(2,2-Dimethyl-tetrahydro-pyran-4-yl)-6-(5-methyl-3-phenyl-isoxazol-4-ylmethoxy)-nicotinamide] belongs 8 nM. To `Cc1onc(-c2ccccc2)c1COc1ccc(C(=O)N[C@H]2CCCC[C@H]2O)cn1` (racemic) [Example 199, N-((1S,2R) and (1R,2S)-2-Hydroxy-cyclohexyl)-6-(5-methyl-3-phenyl-isoxazol-4-ylmethoxy)-nicotinamide] belongs 2.8 nM; to `Cc1onc(-c2ccccc2)c1COc1ccc(C(=O)N[C@@H]2CCCC[C@@H]2O)cn1` (single isomer, unassigned) [Example 203, N-((1R,2S)-2-Hydroxy-cyclohexyl)-6-(5-methyl-3-phenyl-isoxazol-4-ylmethoxy)-nicotinamide or N-((1S,2R)-2-Hydroxy-cyclohexyl)-6-(5-methyl-3-phenyl-isoxazol-4-ylmethoxy)-nicotinamide], 4.8 nM; to `Cc1onc(-c2ccccc2)c1COc1ccc(C(=O)N[C@H]2CCCC[C@H]2O)cn1` (single isomer, unassigned) [Example 204, N-((1S,2R)-2-Hydroxy-cyclohexyl)-6-(5-methyl-3-phenyl-isoxazol-4-ylmethoxy)-nicotinamide or N-((1R,2S)-2-Hydroxy-cyclohexyl)-6-(5-methyl-3-phenyl-isoxazol-4-ylmethoxy)-nicotinamide], 4.4 nM.

As to `Cc1onc(-c2ccccc2)c1COc1ccc(C(=O)N[C@@H]2CCC[C@@H]2O)cn1` (single isomer, unassigned) [Example 210, N-((1R,2S)-2-Hydroxy-cyclopentyl)-6-(5-methyl-3-phenyl-isoxazol-4-ylmethoxy)-nicotinamide or N-((1S,2R)-2-hydroxy-cyclopentyl)-6-(5-methyl-3-phenyl-isoxazol-4-ylmethoxy)-nicotinamide], the Ki turned out to be 5 nM. Take `Cc1onc(-c2ccccc2)c1COc1ccc(C(=O)N[C@H]2CCC[C@H]2O)cn1` (single isomer, unassigned) [Example 211, N-((1S,2R)-2-Hydroxy-cyclopentyl)-6-(5-methyl-3-phenyl-isoxazol-4-ylmethoxy)-nicotinamide or N-((1R,2S)-2-hydroxy-cyclopentyl)-6-(5-methyl-3-phenyl-isoxazol-4-ylmethoxy)-nicotinamide]: the Ki was determined as 2.7 nM. To `Cc1onc(-c2ccccc2)c1COc1ccc(C(=O)N[C@H]2CCC[C@@H]2O)cn1` (single isomer, unassigned) [Example 212, N-((1S,2S)-2-Hydroxy-cyclopentyl)-6-(5-methyl-3-phenyl-isoxazol-4-ylmethoxy)-nicotinamide or N-((1R,2R)-2-hydroxy-cyclopentyl)-6-(5-methyl-3-phenyl-isoxazol-4-ylmethoxy)-nicotinamide] belongs 2 nM.

As for `Cc1onc(-c2ccccc2)c1COc1ccc(C(=O)N[C@@H]2CCC[C@H]2O)cn1` (single isomer, unassigned) [Example 213, N-((1R,2R)-2-Hydroxy-cyclopentyl)-6-(5-methyl-3-phenyl-isoxazol-4-ylmethoxy)-nicotinamide or N-((1S,2S)-2-hydroxy-cyclopentyl)-6-(5-methyl-3-phenyl-isoxazol-4-ylmethoxy)-nicotinamide], the Ki was found to be 1.6 nM.

As to `Cc1onc(-c2ccc(Cl)cc2)c1COc1ccc(C(=O)N[C@@H]2CCC[C@H]2O)cn1` (single isomer, unassigned) [Example 259, 6-[3-(4-Chloro-phenyl)-5-methyl-isoxazol-4-ylmethoxy]-N-((1R,2R)-2-hydroxy-cyclopentyl)-nicotinamide or 6-[3-(4-chloro-phenyl)-5-methyl-isoxazol-4-ylmethoxy]-N-((1S,2S)-2-hydroxy-cyclopentyl)-nicotinamide], the Ki amounted to 0.7 nM. Regarding `Cc1onc(-c2ccc(Cl)cc2)c1COc1ccc(C(=O)N[C@H]2CCC[C@@H]2O)cn1` (single isomer, unassigned) [Example 260, 6-[3-(4-Chloro-phenyl)-5-methyl-isoxazol-4-ylmethoxy]-N-((1S,2S)-2-hydroxy-cyclopentyl)-nicotinamide or 6-[3-(4-chloro-phenyl)-5-methyl-isoxazol-4-ylmethoxy]-N-((1R,2R)-2-hydroxy-cyclopentyl)-nicotinamide], the Ki turned out to be 0.5 nM. To `O=C(N[C@@H]1CCC[C@H]1O)c1ccc(OCc2conc2-c2ccc(F)cc2)nc1` (single isomer, unassigned) [Example 332, 6-[3-(4-Fluoro-phenyl)-isoxazol-4-ylmethoxy]-N-((1R,2R)-2-hydroxy-cyclopentyl)-nicotinamide or 6-[3-(4-fluoro-phenyl)-isoxazol-4-ylmethoxy]-N-((1S,2S)-2-hydroxy-cyclopentyl)-nicotinamide] belongs 22.6 nM. To `O=C(N[C@@H]1CCC[C@H]1O)c1ccc(OCc2conc2-c2ccc(F)cc2)nc1` (single isomer, unassigned) [Example 341, 6-[3-(4-Fluoro-phenyl)-isoxazol-4-ylmethoxy]-N-((1R,2R)-2-hydroxy-cydopentyl)-nicotinamide or 6-[3-(4-fluoro-phenyl)-isoxazol-4-ylmethoxy]-N-((1S,2S)-2-hydroxy-cydopentyl)-nicotinamide] belongs 29.2 nM. For `Cc1onc(-c2ccccc2)c1COc1ccccn1` [Example 1, 2-(5-Methyl-3-phenyl-isoxazol-4-ylmethoxy)-pyridine], the Ki was determined as 36.5 nM. To `Cc1cccc(OCc2c(-c3ccccc3)noc2C)n1` [Example 2, 2-Methyl-6-(5-methyl-3-phenyl-isoxazol-4-ylmethoxy)-pyridine] belongs 3.1 nM; to `Cc1onc(-c2ccccc2)c1COc1ccc(Br)cn1` [Example 3, 5-Bromo-2-(5-methyl-3-phenyl-isoxazol-4-ylmethoxy)-pyridine], 31.1 nM; to `Cc1onc(-c2ccccc2)c1COc1ccc(C(F)(F)F)cn1` [Example 4, 2-(5-Methyl-3-phenyl-isoxazol-4-ylmethoxy)-5-trifluoromethylpyridine], 60.8 nM. To `Cc1onc(-c2ccccc2)c1COc1ccc(C#N)cn1` [Example 5, 6-(5-Methyl-3-phenyl-isoxazol-4-ylmethoxy)-nicotinonitrile] belongs 13.1 nM; to `Cc1onc(-c2ccccc2)c1COc1ccc([N+](=O)[O-])cn1` [Example 6, 2-(5-Methyl-3-phenyl-isoxazol-4-ylmethoxy)-5-nitro-pyridine], 22.2 nM. To `COC(=O)c1ccc(OCc2c(-c3ccccc3)noc2C)nc1` [Example 7, 6-(5-Methyl-3-phenyl-isoxazol-4-ylmethoxy)-nicotinic acid methyl ester] belongs 14.2 nM; to `CNC(=O)c1ccc(OCc2c(-c3ccccc3)noc2C)nc1` [Example 8, N-Methyl-6-(5-methyl-3-phenyl-isoxazol-4-ylmethoxy)-nicotinamide], 4.3 nM. Consider `CCNC(=O)c1ccc(OCc2c(-c3ccccc3)noc2C)nc1` [Example 9, N-Ethyl-6-(5-methyl-3-phenyl-isoxazol-4-ylmethoxy)-nicotinamide], for which the Ki amounted to 2.9 nM. Regarding `Cc1onc(-c2ccccc2)c1COc1ccc(C(=O)NCCF)cn1` [Example 10, N-(2-Fluoro-ethyl)-6-(5-methyl-3-phenyl-isoxazol-4-ylmethoxy)-nicotinamide], the Ki turned out to be 4.4 nM. To `Cc1onc(-c2ccccc2)c1COc1ccc(C(=O)NCC(F)F)cn1` [Example 11, N-(2,2-Difluoro-ethyl)-6-(5-methyl-3-phenyl-isoxazol-4-ylmethoxy)-nicotinamide] belongs 2 nM; to `Cc1onc(-c2ccccc2)c1COc1ccc(C(=O)NCC(F)(F)F)cn1` [Example 12, 6-(5-Methyl-3-phenyl-isoxazol-4-ylmethoxy)-N-(2,2,2-trifluoro-ethyl)-nicotinamide], 2.2 nM; to `Cc1onc(-c2ccccc2)c1COc1ccc(C(=O)NCCO)cn1` [Example 13, N-(2-Hydroxy-ethyl)-6-(5-methyl-3-phenyl-isoxazol-4-ylmethoxy)-nicotinamide], 2.6 nM. Take `COCCCNC(=O)c1ccc(OCc2c(-c3ccccc3)noc2C)nc1` [Example 15, N-(3-Methoxy-propyl)-6-(5-methyl-3-phenyl-isoxazol-4-ylmethoxy)-nicotinamide]: the Ki was 5.2 nM. To `Cc1onc(-c2ccccc2)c1COc1ccc(C(=O)NCC2CC2)cn1` [Example 16, N-Cyclopropylmethyl-6-(5-methyl-3-phenyl-isoxazol-4-ylmethoxy)-nicotinamide] belongs 3.9 nM; to `CCC(CC)CNC(=O)c1ccc(OCc2c(-c3ccccc3)noc2C)nc1` [Example 17, N-(2-Ethyl-butyl)-6-(5-methyl-3-phenyl-isoxazol-4-ylmethoxy)-nicotinamide], 7.7 nM; to `Cc1onc(-c2ccccc2)c1COc1ccc(C(=O)NC[C@H]2CC(=O)NO2)cn1` [Example 18], 19.4 nM.
